Assay results published in patent US11458138B2 (Novartis AG, priority 2017, dated 2022).

What was measured:
[1] = tested on: phospho-YAP (ser127) in human CECs; test: YAP phosphorylation by western blot in CECs; assay type: cell-based; conditions: 10 micromolar, 1 hour
Procedure: Cells obtained as described in Example C1 were detached from the culture dish with 1 mg/ml collagenase for 15 minutes at 37° C., cell suspensions were rinsed by centrifugation and plated in corneal endothelial cell culture medium (human endothelial SF medium (Invitrogen) with human serum) in 6-well plates (Corning) and cultured for 2 to 4 days. The medium was then replaced by fresh corneal endothelial cell culture medium (human endothelial SF medium (Invitrogen) with human serum) supplemented with LATS inhibitor, compound example no. […] Cells were cultured under these conditions for 1 hour at 37° C. in 5% CO2.
Cell pellets were obtained by trypsin dissociation and centrifugation and washed with PBS. The pellets were lysed with […] of RIPA lysis buffer containing protease inhibitor cocktail (Life Technologies) for 30 minutes, with vortexing every 10 minutes. The cell debris were then pelleted at 4° C. for 15 minutes at 14k rpm and the protein lysate was collected. Protein concentration was quantified using a micro BCA kit (Pierce). Fifteen (15) micrograms of total protein was loaded in each well of 4-20% TGX gels (BioRad) and Western blotting was performed according to the manufacturer's instructions. […] Membranes were stained with HRP-conjugated secondary antibodies, rinsed and imaged using a ChemiDoc system (Biorad) according to the manufacturer's instructions.

[2] = tested on: human corneal endothelial cells (CECs); test: Human corneal endothelial cell population expansion, cell confluence (Incucyte); assay type: cell-based; conditions: 10 micromolar, 10 days
Procedure: Cells obtained as described in Example C1 were detached from the culture dish with 100 microlitres of Accutase (ThermoFisher) for 10 minutes at 37° C., cell suspensions were rinsed by centrifugation and plated in corneal endothelial cell culture medium (human endothelial SF medium (Invitrogen) with human serum) in 6-well plates (Corning) supplemented with LATS inhibitor compound example no. […] Cells were cultured at 37° C. in 5% CO2.
To measure cell proliferation, an Incucyte machine was used following the manufacturer's instructions (Essen Biosciences) to perform real-time quantitative live-cell analysis of cell confluence every 3 hours for 10 days.

[3] = tested on: limbal stem cells (LSCs); test: Immunolabelling of LSC markers DeltaN-p63 alpha/beta/gamma, ABCG2, C/EBP delta; assay type: cell-based, human; conditions: vs cells cultured in DMSO
Text: In contrast, cells cultured in the presence of LATS inhibitors express markers such as DeltaN-p63 alpha/beta/gamma, ABCG2 and C/EBP delta, normally expressed by LSCs.
(3) The cells express one or more of ABCB5, ABCG2, and C/EBPδ. The expression of ABCB5, ABCG2, and C/EBPδ may be estimated by standard techniques known in the art, such as for example immunohistochemistry and quantitative RT-PCR.

[4] = tested on: YAP in human CECs; test: Intracellular YAP distribution in corneal endothelial cells (CECs); assay type: cell-based; conditions: 10 micromolar, 24 hours
Procedure: Cells obtained as described in Example C1 were plated in glass-bottom black wall 24-well dishes in corneal endothelial cell culture medium (human endothelial SF (serum free) medium (Invitrogen) with human serum) supplemented with LATS inhibitor compound example no. 133 or compound example no. […] Cells were cultured under these conditions for 24 hours at 37° C. in 5% CO2.
(§1) To measure the effect of the LATS inhibitors on the downstream target YAP, intracellular YAP distribution was analyzed by immunohistochemistry. Cell cultures were fixed with 4% PFA for 20 minutes, permeabilized and blocked in a blocking solution of 0.3% Triton X-100 (Sigma-Aldrich) and 3% donkey serum in PBS for 30 minutes. Cells were then labeled with primary antibody in the blocking solution for 12 hours at 4° C. Primary antibody used was anti-YAP from Santa Cruz Biotechnology. Samples were washed in PBS three times and donkey-raised secondary antibody Alexa Fluor 488 (Molecular Probes) at 1:500 dilution were applied for 30 minutes at room temperature. […] Fluorescence was observed using a Zeiss LSM 880 confocal microscope.

[5] = tested on: YAP in human LSCs; test: Intracellular YAP distribution in limbal epithelial cells (LSCs); assay type: cell-based; conditions: 10 micromolar, 24 hours, vs DMSO
Procedure: Cells obtained as described in Example B1 were plated in glass-bottom black wall 24-well dishes in limbal epithelium cell culture medium (DMEM F12 supplemented with 10% human serum and 1.3 mM calcium chloride) supplemented with LATS inhibitor compound example no. […] Cells were cultured under these conditions for 24 hours at 37° C. in 5% CO2.
as §1

[6] = tested on: YAP phosphorylation in limbal stem cells (LSCs); test: YAP dephosphorylation in LSCs by Western blot; assay type: cell-based, human; conditions: within one hour of treatment
[7] = tested on: limbal stem cells (LSCs); test: Differentiation of expanded LSCs into corneal epithelium cells (p63alpha / keratin 12); assay type: cell-based, human; conditions: transferred to conditions that enable differentiation
Text: Shown are views where the transition from the p63alpha-positive cell identity to the keratin-12 identity are occurring.
These characteristics can be observed by immunohistochemistry or FACS.

[8] = tested on: limbal stem cells (LSCs); test: LSC population expansion, p63-alpha immunolabelling and cell count; assay type: cell-based, human; conditions: for LSC colony formation and p63alpha expression: up to 6 days in culture, vs growth medium and DMSO
Text: FIG. 2A: In the presence of growth medium and DMSO, only a few isolated cells attach to the culture dish and survive up to 6 days. Most cells expressed the human nuclear marker, but few expressed p63alpha. FIGS. 2B and 2C: In contrast, in the presence of LATS inhibitors: compound example no. 49 and example no. […] FIG. 2D: Passaging cells and culturing them in the presence of LATS inhibitor compound example no.
If it is desired to measure the cell number or expansion of the cell population, this may be done for example by taking an aliquot and performing immunocytochemistry (e.g. to count nuclei stained with Sytox Orange) or by live cell imaging under brightfield microscope to count the number of cells or by performing real-time quantitative live-cell analysis of cell confluence at various time points during the cell population expansion phase of the method according to the invention.
The Sytox Orange assay may be performed according to standard protocols known in the art. In brief, after cells have attached to the cell culture dish (typically 24 h after cell plating), the cells are fixed in paraformaldehyde. The cells are then permeabilized (e.g. using a solution of 0.3% Triton X-100) and they are then labeled in a solution of Sytox Orange (e.g. using 0.5 micromolar of Sytox Orange in PBS). The number of nuclei stained with Sytox Orange per surface area are then counted under a Zeiss epifluorescence microscope.
(2) The cell preparation comprises more than 6% p63alpha positive cells. Preferably the cell preparation comprises more than 10%, 20%, 30%, 40%, 50%, 60%, 70%, 80% or 90% p63alpha positive cells. In a preferred embodiment the cell preparation comprises more than 95% p63alpha positive cells. The percentage of p63alpha cells may be measured by immunohistochemistry or FACS.

Row | Structure (SMILES) | YAP phosphorylation levels in human CECs (western blot) [1] | Proliferation of human CECs (percentage confluence over time) [2] | expression of LSC markers DeltaN-p63 alpha/beta/gamma, ABCG2 and C/EBP delta [3] | YAP immunostaining in CECs [4] | YAP immunostaining in the nucleus of LSCs [5] | YAP dephosphorylation in LSCs [6] | differentiation of expanded LSCs into corneal epithelium cells (keratin 12) [7] | LSC population expansion after passaging ([8]; passaged cells cultured for two weeks) | LSC colony formation and p63alpha expression [8]
1 | CC(C)(O)CC(C)(C)Nc1nc(-c2ccncc2)nc2cnccc12 [Example 49, 2,4-dimethyl-4-{[2-(pyridin-4-yl)pyrido[3,4-d]pyrimidin-4-yl]amino}pentan-2-ol] | reduction in YAP phosphorylation levels in human CECs | could activate proliferation in these cells | express typical markers of LSCs | stronger | stronger in the nucleus | induce YAP dephosphorylation | can differentiate into corneal epithelium cells | enabled cell population expansion and the formation of confluent cultures expressing p63alpha | formed colonies and expressed p63alpha
2 | Cc1n[nH]cc1-c1nc(NC2(C)CC2)c2ccncc2n1 [Example 133, 2-(3-methyl-1H-pyrazol-4-yl)-N-(1-methylcyclopropyl)pyrido[3,4-d]pyrimidin-4-amine] | reduction in YAP phosphorylation levels in human CECs | could activate proliferation in these cells | express typical markers of LSCs | stronger | stronger in the nucleus | induce YAP dephosphorylation |  |  | formed colonies and expressed p63alpha
3 | CC(C)(C)Nc1cc(-c2ccncc2)nc2cnccc12 [Example 261, N-(tert-butyl)-2-(pyridin-4-yl)-1,7-naphthyridin-4-amine] |  |  |  |  |  |  | can differentiate into corneal epithelium cells |  | 
